Test results taken from PMC5705272 (Neurobiology of aging, 2017).

Biological target: T1, PKC-λ/ι (PKC-ι) (Homo sapiens, UniProt P41743)
T1 sequence (P41743 2-596): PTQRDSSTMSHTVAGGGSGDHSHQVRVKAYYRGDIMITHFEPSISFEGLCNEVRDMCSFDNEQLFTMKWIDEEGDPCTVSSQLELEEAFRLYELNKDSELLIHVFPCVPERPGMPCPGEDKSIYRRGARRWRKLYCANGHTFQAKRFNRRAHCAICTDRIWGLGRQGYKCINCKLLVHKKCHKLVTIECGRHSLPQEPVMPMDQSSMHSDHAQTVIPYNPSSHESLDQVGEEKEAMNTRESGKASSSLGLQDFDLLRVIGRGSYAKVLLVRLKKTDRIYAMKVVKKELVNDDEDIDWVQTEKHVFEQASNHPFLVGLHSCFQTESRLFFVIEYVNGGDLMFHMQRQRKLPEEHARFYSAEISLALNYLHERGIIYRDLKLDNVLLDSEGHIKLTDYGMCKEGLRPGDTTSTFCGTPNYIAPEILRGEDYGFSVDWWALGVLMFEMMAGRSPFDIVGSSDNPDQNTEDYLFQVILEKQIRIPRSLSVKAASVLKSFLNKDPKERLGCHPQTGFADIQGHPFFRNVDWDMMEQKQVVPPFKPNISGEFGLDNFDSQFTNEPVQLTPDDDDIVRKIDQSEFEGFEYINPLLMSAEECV
Type: cell-based

IC50: 1 to 10 nM
SMILES: NC(=O)c1ncn([C@@H]2C[C@H](COP(=O)(O)O)[C@@H](O)[C@H]2O)c1N [ICAPP, 1H-imidazole-4-carboxamide,5-amino]-[2,3-dihydroxy-4-[(phosphono-oxy)methyl]cyclopentane-[1R-(1a,2b,3b,4a)]]
